Values after ≈ are worked out from the molar mass of the structure shown.
Assays:
MRSA = test: MIC against clinically isolated strains, MRSA; assay type: cell-based, methicillin resistant Staphylococcus aureus; parameters: MICmode / MICrange: unit not given here; conditions: MRSA (23 strains)
Source text: (§1) Standard strains, including Staphylococcus aureus ATCC29213, S. pneumoniae ATCC49619, E. faecalis ATCC29212, are all available from the American Type Culture Collection.
(§2) Clinically isolated strains: There are total 120 clinical strains of gram-positive bacterium including: 37 strains of Staphylococcus aureus (consisting of 14 strains of methicillin sensitive Staphylococcus aureus MSSA and 23 strains of methicillin resistant Staphylococcus aureus MRSA); 27 strains of Streptococcus pneumoniae (consisting of 13 strains of penicillin sensitive Streptococcus pneumoniae PSSP and 14 strains of penicillin insensitive or resistant Streptococcus pneumoniae PISP+PRSP); 15 strains of Streptococcus pyogenes; 17 strains of Streptococcus agalactiae; 24 stains of Enterococcus faecium (consisting of 12 strains of vancomycin sensitive Enterococcus faecium and 12 strains of vancomycin resistant Enterococcus faecium).
(§3) (2) Tested compounds: Compound 13f was prepared by the methods above, with potency of over 98%; Linezolid was purchased from Pfizer, with potency of 100%.
(§4) Staphylococcus and Enterococcus faecium were incubated in Mueller-Hinton agar medium (MHA medium) at 35° C. for 16-20 h; S. pneumoniae was incubated in Cation-Adjusted Mueller-Hinton Broth medium (CAMHB medium) supplemented with 2.5-5.5% (v/v) lysed horse blood (LHB) at 35° C. for 20-24 h; and Streptococcus were incubated in sheep blood-containing medium (prepared by addition of 5% defibrinated sheep blood into MHA media) at 35° C. for 20-24 h in 5% CO2 environment (CO2 incubator). Before test of the compound activity, each stock of the bacteria strains was activated and colonized in the following manner: the stock was transferred and cultured in a liquid culture medium, the culture liquid was smeared onto an agar plate with an inoculating loop to obtain bacterial colonies on the plate after incubation, and then a colony of the bacteria was chose to be suspended into the liquid culture medium for performing the test of compound activity. As a result, fresh bacteria cells were applied to the test. The standard strains were used as sensitive bacterium to control the quality of the experiments, and a plate or tube containing no antibacterial compounds is used as a blank control for the growth of test strains.
(§5) The minimal inhibitory concentration (MIC) of the test compounds on the strains of Streptococcus pneumoniae was determined by a standard broth macrodilution method, while the MIC of the test compounds on the other bacteria stains was determined by standard agar double dilution methods. […] The MIC of the test compound to each strain of the bacteria was determined.

gram-positive bacteria = test: MIC against 120 strains of clinically isolated gram-positive bacteria; assay type: cell-based; conditions: 120 clinically isolated gram-positive strains
Source text: In order to further study the antibacterial spectrum of Compound 13f, we tested in vitro inhibitory activity of compound 13f on 120 strains of gram-positive bacteria established by clinical isolation, and the MIC values were shown in Table 3.
as §2, §5

MSSA = test: Minimum bactericidal concentration (MBC) test, MSSA; assay type: cell-based, methicillin sensitive Staphylococcus aureus; conditions: for MIC: MSSA
Description: as §4
(§6) The minimal inhibitory concentration (MIC) of the test compounds on the strains of Streptococcus pneumoniae was determined by a standard broth macrodilution method, while the MIC of the test compounds on the other bacteria stains was determined by standard agar double dilution methods. The concentration of the test compounds was in the range of 32 mg/L-0.016 mg/L. The bacterial suspensions to be tested were inoculated by a multipoint inoculator, and the inoculation amount at each point is 10^4 CFU. The MIC of the test compound to each strain of the bacteria was determined.
(§7) The MBC was determined by a tube double dilution method. Solutions of the test compounds was prepared and serially diluted. Each of the solutions was mixed with a bacterium suspension (10^6 CFU/mL), and then was incubated at 35° C. overnight. 0.1 mL of the culture supernatant of each tubes was inoculated on a plate containing no antibiotics, and then incubated at 35° C. for 18 h.

PNSSP = test: Minimum bactericidal concentration (MBC) test, PNSSP; assay type: cell-based, Streptococcus pneumoniae; conditions: strain 09J699, PNSSP
Description: as §4, §6
(§8) The MBC was determined by a tube double dilution method. Solutions of the test compounds was prepared and serially diluted. Each of the solutions was mixed with a bacterium suspension (10^6 CFU/mL), and then was incubated at 35° C. overnight. […]

Streptococcus pyogenes = test: MIC against clinically isolated strains, Streptococcus pyogenes; assay type: cell-based; parameters: MICmode / MICrange: unit not given here; conditions: Streptococcus pyogenes (15 strains)
Source text: as §1, §2, §3, §4, §5

PSSP [1] = test: MIC against clinically isolated strains, PSSP; assay type: cell-based, penicillin sensitive Streptococcus pneumoniae; parameters: MICmode / MICrange: unit not given here
Source text: as §1, §2, §3, §4, §5

PSSP [2] = test: Minimum bactericidal concentration (MBC) test, PSSP; assay type: cell-based, penicillin sensitive Streptococcus pneumoniae; conditions: strain 09G343, PSSP
Description: as §4, §6, §8

VSE = test: Minimum bactericidal concentration (MBC) test, VSE; assay type: cell-based, vancomycin sensitive Enterococcus faecium
Description: as §4, §6, §7

PNSP = test: MIC against clinically isolated strains, PNSP; assay type: cell-based, penicillin insensitive or resistant Streptococcus pneumoniae; parameters: MICmode / MICrange: unit not given here; conditions: PNSP (14 grains)
Source text: as §1, §2, §3, §4, §5

[3] = Staphylococcus aureus, strain 09U035, MSSA
[4] = Streptococcus pneumoniae, PSSP (13 strains)
[5] = Enterococcus faecium, strain 09D263, VSE

CC(=O)NC[C@H]1CN(c2ccc(-n3cc(-c4ccccn4)cn3)c(F)c2)C(=O)O1 [Compound 13f, (S)-N-((3-(3-fluoro-4-(4-(pyridin-2-yl)-1H-pyrazol-1-yl)phenyl)-2-oxooxazolidin-5-yl)methyl)acetamide]
MICmode (MRSA): 1 | MICrange (MRSA): 0.5-1 | MIC50 (MRSA; Staphylococcus aureus): 1 ng/mL (≈ 2.53 nM) | MIC90 (MRSA; Staphylococcus aureus): 1 ng/mL (≈ 2.53 nM) | antibacterial activity on test strains compared with Linezolid (gram-positive bacteria): almost the same with that of Linezolid | MIC (MSSA; Staphylococcus aureus, strain 09O077, MSSA): 1 ng/mL (≈ 2.53 nM) | MIC (MSSA; [3]): 2 ng/mL (≈ 5.06 nM) | MBC (MSSA; [3]): 2 ng/mL (≈ 5.06 nM) | MBC value (MSSA; strain 09O077, MSSA): 2 ng/mL (≈ 5.06 nM) | MBC/MIC (MSSA; strain 09O077, MSSA): 2 | MBC/MIC (MSSA; strain 09U035, MSSA): 1 | MBC (PNSSP; Streptococcus pneumoniae): 2 ng/mL (≈ 5.06 nM) | MIC (PNSSP; Streptococcus pneumoniae): 1 ng/mL (≈ 2.53 nM) | MBC/MIC (PNSSP): 2 | MIC50 (Streptococcus pyogenes): 0.25 ng/mL (≈ 0.632 nM) | MIC90 (Streptococcus pyogenes): 0.5 ng/mL (≈ 1.26 nM) | MICmode (Streptococcus pyogenes): 0.25 | MICrange (Streptococcus pyogenes): 0.25-0.5 | MICrange (PSSP [1]; PSSP (13 grains)): 0.5-1 | MICmode (PSSP [1]; PSSP (13 strains)): 1 | MIC50 (PSSP [1]; [4]): 1 ng/mL (≈ 2.53 nM) | MIC90 (PSSP [1]; [4]): 1 ng/mL (≈ 2.53 nM) | MBC (PSSP [2]; Streptococcus pneumoniae): 1 ng/mL (≈ 2.53 nM) | MIC (PSSP [2]; Streptococcus pneumoniae): 0.5 ng/mL (≈ 1.26 nM) | MBC/MIC (PSSP [2]): 2 | MBC (VSE; [5]): 8 ng/mL (≈ 20.2 nM) | MIC (VSE; [5]): 4 ng/mL (≈ 10.1 nM) | MBC/MIC (VSE; strain 09D263, VSE): 2 | MBC value (VSE; strain 09H202, VSE): 8 ng/mL (≈ 20.2 nM) | MBC/MIC (VSE; strain 09H202, VSE): 2 | MIC value (VSE; strain 09H202, VSE): 4 ng/mL (≈ 10.1 nM) | MICmode (PNSP): 0.5 | MICrange (PNSP): 0.5-1 | MIC50 (PNSP; Streptococcus pneumoniae): 0.5 ng/mL (≈ 1.26 nM) | MIC90 (PNSP; Streptococcus pneumoniae): 1 ng/mL (≈ 2.53 nM)

From patent US8946436B2, “Oxazolidinone compounds and their uses in preparation of antibiotics” (Sichuan Gooddoctor Pharmaceutical Group Co., Ltd., priority 2011, dated 2015)
